A short description of data set [1]: Cytotoxicity in U87-CD4-CCR5 cells (MTT). The data set is classed as cell-based. The conditions noted are these: human. On the procedure:
TZM-bl cells, U87-CD4-CCR5, murine macrophages (J774.1), and THP-1 monocytes (ATCC®TIB-202™) were grown following ATCC recommendations. Cells were seeded in a 96-well plate (10^4 cells in 200 µL culture medium) and incubated at 37 °C in a 5% CO2 atmosphere for 48 h, to allow cell adhesion before drug testing. For stimulation (THP-1 monocytes), cells were incubated with 100 nM of phorbol 12-myristate 13-acetate (PMA) for 48 h. PMA was then washed and cells were left for an additional 24 h, 48 h or11 days (only U87 cells) with growth media containing compound 696 at 10, 25, 50, and 100 µM. A vehicle for control (0.4% DMSO) and negative wells (cells in medium) was used in each test. Cell viability was then assessed by measuring the mitochondria-dependent reduction of MTT (3-(4,5-dimethylthiazol-2-yl)-2,5-diphenyltetrazolium bromide) to formazan. […] After removing the medium, formazan crystals were dissolved in 180 µL of DMSO and 20µL of MTT buffer (0.1 M glycine, 0.1 M NaCl, 0.5 mM EDTA, pH 10.5), and the absorbance at 560 nm was measured. […]
Compounds were first dissolved in DMSO to reach a concentration of 20 mM. […] The supernatant was collected every 3–4 days and analyzed for virus production by an in-house p24 capture ELISA. IC50 was calculated using “Quest Graph™ IC50 Calculator” (AAT Bioquest, Inc., https://www.aatbio.com/tools/ic50-calculator). […]

A short description of data set [2]: Cytotoxicity in TZM-bl cells (MTT). The data set is classed as cell-based, human. As to conditions: human, TZM-bl cells; 48hs. On the procedure:
(§1) TZM-bl cells, U87-CD4-CCR5, murine macrophages (J774.1), and THP-1 monocytes (ATCC®TIB-202™) were grown following ATCC recommendations. Cells were seeded in a 96-well plate (10^4 cells in 200 µL culture medium) and incubated at 37 °C in a 5% CO2 atmosphere for 48 h, to allow cell adhesion before drug testing. For stimulation (THP-1 monocytes), cells were incubated with 100 nM of phorbol 12-myristate 13-acetate (PMA) for 48 h. […] A vehicle for control (0.4% DMSO) and negative wells (cells in medium) was used in each test. […] After removing the medium, formazan crystals were dissolved in 180 µL of DMSO and 20µL of MTT buffer (0.1 M glycine, 0.1 M NaCl, 0.5 mM EDTA, pH 10.5), and the absorbance at 560 nm was measured. […] Tests were performed in triplicate, in two independent experiments.

A further data set deals with TZM-bl cells. The experiment in a line: Cytotoxicity in TZM-bl cells (MTT). The data set is classed as cell-based, human. As to conditions: Homo sapiens, TZM-bl; Table 1, 696, 48hs. On the procedure: as §1
The subject of data set [3] is HIV-1 reverse transcription (pol viral DNA). As to the kind of experiment: qPCR quantification of reverse transcribed viral DNA in U87-CD4-CCR5 cells. As to conditions: 10 µM, cells preincubated, DNA extracted 48 h post-infection. Type of data set: cell-based. (In general: In qPCR the cycle at which signal appears reflects the starting amount.)
Procedure: U87-CD4-CCR5 cells were plated in a 24-wells plate at 1.25 × 10^5 cells per well. […] Total DNA was extracted 48 h post-infection using the AllPrep DNA/RNA Mini Kit (Qiagen, Venlo, Netherlands). […] The following program was used in the LightCycler 480 Real-Time PCR System (Roche, Basel, Switzerland): pre-incubation: 95 °C for 3 min, pre-amplification: 2 cycles of 95 °C for 15 s and 49 °C for 15 s, amplification: 40 cycles of 95 °C for 10 s, 58 °C for 20 s, 72 °C for 30 s, melting curve stage: 95 °C for 5 s, 55 °C for 1 min and then 97 °C with acquisition every 10 °C, cooling stage: 40 °C for 10 s. Serial dilution of the 8E5 cell line which contains 1 copy of HIV-1 proviral DNA per cell was used as a standard curve for viral RT products [46]. […] Results were calculated as the number of copies of Pol per copy of β-actin. Statistical analysis was performed using an unpaired, two-tailed, Mann–Whitney test with GraphPad Prism 7.0 software. Tests were performed in quadruplicate, in two independent experiments.
Data set [4] is described as follows: Liver fraction stability (thin-layer chromatography). Type of data set: in vitro ADME, rat. On the procedure: For the determination of liver fraction stability, rat liver microsomal and cytosolic proteins were used (MOLTOX™ manufactures products, North Carolina, US). Rat liver microsomal and cytosolic proteins were used according to the manufacturer’s recommendations and the methodology previously described. […] The final concentration of 696 in the aqueous medium was 100 µM and was prepared from a stock solution in DMSO. The solutions were further homogenized and incubated at 37 °C for 1 to 4 h following the OECD recommendation for drug development. After that, thin-layer chromatography of ethyl acetate extracts was performed to evaluate the presence of metabolites.

The subject of another data set is HIV-1 NL4-3 Ba-L. As to the kind of experiment: microbe, parasite or virus in culture. The data set is classed as cell-based. On the procedure:
Compounds were first dissolved in DMSO to reach a concentration of 20 mM. They were further diluted to a 200 µM working stock and then further diluted to reach a starting concentration of 10 µM in the culture plate. U87-CD4-CCR5 cells were seeded in quadruplicate at 4000 cells/well in a final volume of 100 µL. The next day, 24 µL of the compound was added in serial 1:2 dilutions to the cells. Two hours later, 25 µL of infectious virus (NL4-3 Ba-L) were added to the cells with a TCID50 of 250. AZT at 10 µM was included as an inhibition control. The medium was replenished in the presence of compounds once every 3 to 4 days. The supernatant was collected every 3–4 days and analyzed for virus production by an in-house p24 capture ELISA. IC50 was calculated using “Quest Graph™ IC50 Calculator” (AAT Bioquest, Inc., https://www.aatbio.com/tools/ic50-calculator). Cytotoxicity of the compound was tested on U87-CD4-CCR5 cells in parallel by MTT assay (at the same protocol as in Sect. 3.5 but after 11 days of incubation))[39].

Another data set deals with T1, monomeric HIV-1 CA (Human immunodeficiency virus type 1 group M subtype B, UniProt P12493).
T1 construct: the capsid protein (CA) of the Gag polyprotein; made in house
The experiment in a line: Affinity for HIV-1 CA by microscale thermophoresis (MST). Type of data set: binding. On the procedure:
The affinity of compound 696 for HIV-1 CA in vitro was measured by microscale thermophoresis (MST) as described previously for FIV CA [31]. Due to its intrinsic autofluorescence interfering with MST, the binding of compound 314 to CA was measured using isothermal microcalorimetry (ITC) with a Microcal iTC200 calorimeter (Malvern Instruments, Worcestershire, UK). The calorimeter cell contained 200 µL of recombinant HIV-1 CA (kind gifted by Drs Verrier and Coiffier) at 0.78 mg/mL in phosphate buffer (NaH2PO4/Na2HPO4) 50 mM pH 7.5, NaCl 100 mM, 1% DMSO [v/v]. Compound 314 at 200 µM was then injected sequentially into the calorimeter cell (injection #1: 1 µL, injections #2-#20: 2 µL) at 120 s intervals. Data were analyzed using the OriginLab8.5® software according to the manufacturer’s instructions.

Where two headings read alike, the source gives them in different places.

In general, EC50 refers to the concentration giving half of the maximal effect. Low values mean an effect from little substance, high ones a need for much substance. For orientation: IC50 means the concentration at which inhibition is half-maximal. What is called Kd is a measure of binding affinity in units of concentration.

On to `Cc1ccc2c(c1)nc(-c1ccc(N(C)C)cc1)n2CCc1ccccc1` [compound 696, 2-(4-N,N-dimethylaminophenyl)-5-methyl-1-phenethyl-1H-benzimidazole], for which the EC50 at 11 days in data set [1] was above 50 µM. The compound also showed a 50% effective concentration (EC50) at 48 h in data set [2] above 50 µM. The same compound showed an EC50 in the data set with TZM-bl cells above 25 µM. Besides, the “inhibition of HIV-1 reverse transcription (pol viral DNA by qPCR)” value in data set [3] is “did not show any significant effect”. In data set [4], the “metabolic stability (in words)” value was “high metabolic stability”. Besides, in data set [4] (100 µM, 37 °C, TLC, absence of new metabolites), the “stability under microsomal and cytosolic fraction derived from rat liver” value was “stable for 4 h”. In addition, in data set [4] (rat, rat liver microsomes, read-out: Metabolic stability, half-life (t1/2)), the half-life at 100 µM is above 4 h. The compound further showed an EC50/IC50 in the data set on HIV-1 NL4-3 Ba-L above 21. The half-maximal inhibitory concentration (IC50) in the data set with HIV-1 NL4-3 Ba-L (Human immunodeficiency virus 1, U87/CD4/CCR5, 264 h, read-out: IC50, inhibition of HIV-1 replication) amounted to 3 µM; in the data set on HIV-1 NL4-3 Ba-L (Human immunodeficiency virus 1, U87/CD4/CCR5, read-out: IC50 in U87 (μM)), 2.3 ± 0.6 µM. Further, the “inhibition of HIV-1 replication (in words)” value in the data set on HIV-1 NL4-3 Ba-L (U87-CD4-CCR5 cells, serial 1:2 dilutions from 10 µM) was “clear dose–response inhibition”. Further, in the data set with HIV-1 NL4-3 Ba-L (U87-CD4-CCR5 cells, two highest concentrations tested, after 11 days), the “inhibition of HIV-1 replication” value is listed as “more than 80%”. The “selective activity between mammalian cells and antiviral activity” value with HIV-1 NL4-3 Ba-L (cytotoxicity EC50 vs antiviral IC50) is recorded as “at least 10 times”. On monomeric HIV-1 CA, the Kd came to 69 ± 6 µM.
